Legend:
Type in all cases: in vivo
Plutella xylostella = test: Example B8: Plutella xylostella (diamond back moth), artificial diet 24-well, eggs; details: 192 h, application rate of 200 ppm, 8 days after infestation, read-out: effect in at least one of the two categories (mortality or growth inhibition)
Method in brief: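 Plutella eggs placed onto dried, compound-treated artificial diet, the aqueous test solutions diluted from 10,000 ppm DMSO stocks. Eight days post-infestation, larvae rated for mortality and growth inhibition relative to untreated controls.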

Spodoptera littoralis = test: Example B9: Spodoptera littoralis (Egyptian cotton leaf worm), cotton leaf discs, L1 larvae; details: foliar, 72 h, application rate of 200 ppm, 3 days after infestation, read-out: control in at least one of the three categories (mortality, anti-feedant effect, or growth inhibition)
Method in brief: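 Five L1 larvae placed on sprayed, dried cotton leaf discs; spray solutions aqueous, from 10,000 ppm DMSO stocks. Control given when mortality, anti-feedant effect or growth inhibition exceeds untreated samples at 3 days.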

Myzus persicae = test: Example B7: Myzus persicae (green peach aphid), intrinsic activity, sucrose solution 24-well; details: 120 h, application rate of 12.5 ppm, 5 days after infestation, read-out: control (mortality)
From the text: Example B7: Myzus persicae (Green Peach Aphid). Intrinsic Activity
Test compounds prepared from 10,000 ppm DMSO stock solutions were applied by pipette into 24-well microtiter plates and mixed with sucrose solution. The plates were closed with a stretched Parafilm. A plastic stencil with 24 holes was placed onto the plate and infested pea seedlings were placed directly on the Parafilm. The infested plate was closed with a gel blotting paper and another plastic stencil and then turned upside down. The samples were assessed for mortality 5 days after infestation.
The following compounds gave an effect of at least 80% control at an application rate of 12.5 ppm: […]

Chilo suppressalis = test: Example B1: Chilo suppressalis (striped rice stemborer), artificial diet, L2 larvae; details: 144 h, application rate of 200 ppm, 6 days after infestation, read-out: control in at least one of the three categories (mortality, anti-feedant effect, or growth inhibition)
Method in brief: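 L2 larvae (6-8 per well) were placed on dried artificial diet that had been dosed with aqueous dilutions of 10,000 ppm DMSO stock solutions. After 6 days, control was credited if mortality, antifeedant effect or growth inhibition was higher than in untreated samples.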

Row | SMILES | percent effect (mortality or growth inhibition) at 200 ppm (Plutella xylostella) | percent control (mortality, anti-feedant effect or growth inhibition) at 200 ppm (Spodoptera littoralis) | mortality at 12.5 ppm (Myzus persicae) | percent control (mortality, anti-feedant effect or growth inhibition) at 200 ppm (Chilo suppressalis)
1 | C[C@H](NC(=O)Nc1cc(C(F)(F)F)cnc1Cl)c1ncnn1-c1ncccn1 [Example P127, 1-[2-chloro-5-(trifluoromethyl)-3-pyridyl]-3-[(1S)-1-(2-pyrimidin-2-yl-1,2,4-triazol-3-yl)ethyl]urea] | ≥ 80% | ≥ 80% | ≥ 80% | ≥ 80%
2 | CC(C)Oc1cc(NC(=O)N[C@@H](C)c2ncnn2-c2ncccn2)c(F)cc1Br [Example P221, 1-(4-bromo-2-fluoro-5-isopropoxy-phenyl)-3-[(1S)-1-(2-pyrimidin-2-yl-1,2,4-triazol-3-yl)ethyl]urea] | ≥ 80% | – | ≥ 80% | ≥ 80%
3 | CSc1cc(Cl)c(C(F)(F)F)cc1NC(=O)N[C@@H](C)c1ncnn1-c1ncccn1 [Example P360, 1-[4-chloro-2-methylsulfanyl-5-(trifluoromethyl)phenyl]-3-[(1S)-1-(2-pyrimidin-2-yl-1,2,4-triazol-3-yl)ethyl]urea] | – | ≥ 80% | ≥ 80% | ≥ 80%
4 | COC(=O)c1cc(NC(=O)N[C@@H](C)c2ncnn2-c2ncccn2)c(C(F)(F)F)cc1Cl [Example P210, methyl 2-chloro-5-[[(1S)-1-(2-pyrimidin-2-yl-1,2,4-triazol-3-yl)ethyl]carbamoylamino]-4-(trifluoromethyl)benzoate] | ≥ 80% | – | ≥ 80% | ≥ 80%
5 | CCCOc1cc(NC(=O)N[C@@H](C)c2ncnn2-c2ncccn2)c(F)cc1Br [Example P231, 1-(4-bromo-2-fluoro-5-propoxy-phenyl)-3-[(1S)-1-(2-pyrimidin-2-yl-1,2,4-triazol-3-yl)ethyl]urea] | ≥ 80% | – | ≥ 80% | –
6 | COc1cc(Cl)c(NC(=O)N[C@@H](C)c2ncnn2-c2ncccn2)cc1OC [Example P304, 1-(2-chloro-4,5-dimethoxy-phenyl)-3-[(1S)-1-(2-pyrimidin-2-yl-1,2,4-triazol-3-yl)ethyl]urea] | ≥ 80% | – | ≥ 80% | –
7 | C[C@H](NC(=O)Nc1cc(F)c(C(F)(F)F)cc1F)c1ncnn1-c1ncccn1 [Example P332, 1-[2,5-difluoro-4-(trifluoromethyl)phenyl]-3-[(1S)-1-(2-pyrimidin-2-yl-1,2,4-triazol-3-yl)ethyl]urea] | – | ≥ 80% | ≥ 80% | ≥ 80%
8 | C[C@H](NC(=O)Nc1cc(Oc2ncccn2)c(Cl)cc1Cl)c1ncnn1-c1ncccn1 [Example P138, 1-(2,4-dichloro-5-pyrimidin-2-yloxy-phenyl)-3-[(1S)-1-(2-pyrimidin-2-yl-1,2,4-triazol-3-yl)ethyl]urea] | ≥ 80% | – | ≥ 80% | ≥ 80%
9 | C[C@H](NC(=O)Nc1cc(Oc2ccc(C#N)cn2)c(Cl)cc1Cl)c1ncnn1-c1ncccn1 [Example P274, 1-[2,4-dichloro-5-[(5-cyano-2-pyridyl)oxy]phenyl]-3-[(1S)-1-(2-pyrimidin-2-yl-1,2,4-triazol-3-yl)ethyl]urea] | ≥ 80% | – | ≥ 80% | ≥ 80%
10 | C[C@H](NC(=O)Nc1ccc(C#N)cc1Br)c1ncnn1-c1ncccn1 [Example P30, 1-(2-bromo-4-cyano-phenyl)-3-[(1S)-1-(2-pyrimidin-2-yl-1,2,4-triazol-3-yl)ethyl]urea] | – | – | ≥ 80% | ≥ 80%

Source: patent US20240108006A1, “PESTICIDALLY ACTIVE HETEROAROMATIC COMPOUNDS” (SYNGENTA CROP PROTECTION AG, priority 2021, published 2024)
